According to DBAASP:
In brackets after ≈: the same amount, converted by molar mass.

Columns and labels:
Assay in all cases: ≥ marks a high value that may be exact or a test limit, other limits are often not marked, values filed in µg/mL are converted to µM
[1] = system: Staphylococcus aureus ATCC 6538
[2] = system: Staphylococcus epidermidis ATCC 12228
[3] = system: Escherichia coli DH5alpha
[4] = system: Micrococcus luteus ATCC 4698
Staphylococcus aureus = system: Staphylococcus aureus
Pseudomonas aeruginosa = system: Pseudomonas aeruginosa
Bacillus subtilis 168 = system: Bacillus subtilis 168
[5] = system: Candida albicans F7-39/IDE99
Escherichia coli B = system: Escherichia coli B
Bacillus cereus = system: Bacillus cereus
Micrococcus luteus = system: Micrococcus luteus
Streptococcus uberis = system: Streptococcus uberis
Leuconostoc lactis = system: Leuconostoc lactis
Escherichia coli = system: Escherichia coli
Pasteurella multocida = system: Pasteurella multocida
Listeria innocua = system: Listeria innocua
[6] = system: Staphylococcus epidermidis
[7] = system: Salmonella enterica subsp. enterica serovar Typhimurium ATCC 14028
[8] = system: Escherichia coli ATCC 25922
[9] = system: Shigella dysenteriae ATCC 9752
[10] = system: Micrococcus luteus ATCC 10240
[11] = system: Klebsiella pneumoniae ATCC 10031
[12] = system: Bacillus subtilis ATCC 6633
[13] = system: Pseudomonas aeruginosa ATCC 27853
[14] = system: Staphylococcus aureus TK784
[15] = system: Staphylococcus aureus ATCC 6538P
Acinetobacter baumannii = system: Acinetobacter baumannii
[16] = system: Salmonella enterica subsp. enterica serovar Typhimurium C77-31
Escherichia coli UB1005 = system: Escherichia coli UB1005
[17] = system: Staphylococcus aureus ATCC 29213
[18] = system: Staphylococcus aureus ATCC 25923

Row | MIC [2] | MIC (Staphylococcus aureus) | MIC (Pseudomonas aeruginosa) | MIC (Escherichia coli) | MIC [7] | MIC [8] | MIC [9] | MIC [10] | MIC [11] | MIC [12] | MIC [13] | MIC [14] | MIC [15] | SMILES | further results
1 | 12.8 µM (≈ 18 µg/mL) | – | – | – | – | – | – | – | – | – | – | – | – | CC(C)C[C@H](NC(=O)[C@H](C)NC(=O)CNC(=O)[C@H](CC(C)C)NC(=O)[C@@H](N)Cc1ccccc1)C(=O)N[C@@H](Cc1ccccc1)C(=O)N[C@@H](CCCCN)C(=O)N[C@@H](C)C(=O)N[C@@H](CC(C)C)C(=O)N[C@@H](CO)C(=O)N[C@@H](CCCCN)C(=O)N[C@@H](CC(C)C)C(=O)N[C@H](C(=O)O)C(C)C [FLGALFKALSKLV] | MIC [1]: 7.82 µM (≈ 11 µg/mL); MIC [3]: ≥ 35.5 µM; MIC [4]: 4.27 µM (≈ 6 µg/mL)
2 | 15.6 µM (≈ 22 µg/mL) | – | – | – | – | – | – | – | – | – | – | – | – | CC(C)C[C@H](NC(=O)[C@H](CC(C)C)NC(=O)[C@H](CCCCN)NC(=O)[C@H](CO)NC(=O)[C@H](CC(C)C)NC(=O)[C@H](C)NC(=O)[C@H](CCCCN)NC(=O)[C@H](Cc1ccccc1)NC(=O)[C@H](CC(C)C)NC(=O)[C@H](C)NC(=O)CNC(=O)[C@@H](NC(=O)[C@@H](N)Cc1ccccc1)C(C)C)C(=O)O [FVGALFKALSKLL] | MIC [1]: 8.53 µM (≈ 12 µg/mL); MIC [3]: ≥ 35.5 µM; MIC [4]: 4.27 µM (≈ 6 µg/mL)
3 | – | 10 µM (≈ 14.1 µg/mL) | 10 µM (≈ 14.1 µg/mL) | – | – | – | – | – | – | – | – | – | – | CC(C)C[C@H](NC(=O)[C@@H](NC(=O)[C@H](CCCCN)NC(=O)[C@H](CCCCN)NC(=O)[C@H](CC(C)C)NC(=O)[C@H](CC(C)C)NC(=O)[C@H](CCCCN)NC(=O)[C@H](CC(C)C)NC(=O)[C@H](C)NC(=O)[C@H](CCCCN)NC(=O)CNC(=O)[C@H](Cc1ccccc1)NC(=O)CN)C(C)C)C(N)=O [GFGKALKLLKKVL] | MIC (Bacillus subtilis 168): 1.8 µM (≈ 2.54 µg/mL); MIC [5]: 5 µM (≈ 7.07 µg/mL); MIC (Escherichia coli B): 2.5 µM (≈ 3.53 µg/mL)
4 | – | > 39.5 µM | – | > 39.5 µM | – | – | – | – | – | – | – | – | – | CC[C@H](C)[C@H](NC(=O)[C@@H](NC(=O)[C@H](C)NC(=O)[C@@H](NC(=O)[C@@H](NC(=O)[C@H](Cc1cnc[nH]1)NC(=O)[C@H](C)NC(=O)[C@H](CC(C)C)NC(=O)[C@@H](NC(=O)[C@H](Cc1cnc[nH]1)NC(=O)[C@H](CCCCN)NC(=O)[C@H](C)NC(=O)[C@@H](NC(=O)[C@H](CO)NC(=O)CNC(=O)[C@H](CC(C)C)NC(=O)[C@@H](NC(=O)[C@H](CO)NC(=O)[C@H](CC(C)C)NC(=O)[C@H](CC(C)C)NC(=O)CN)C(C)C)C(C)C)C(C)C)C(C)C)C(C)C)C(C)C)C(=O)N[C@@H](C)C(=O)N[C@@H](CCC(=O)O)C(=O)N[C@@H](Cc1cnc[nH]1)C(=O)N[C@@H](CC(C)C)C(N)=O [GLLSVLGSVAKHVLAHVVAVIAEHL] | MIC (Bacillus cereus): ≥ 39.5 µM; MIC (Micrococcus luteus): ≥ 39.5 µM; MIC (Streptococcus uberis): ≥ 39.5 µM; MIC (Leuconostoc lactis): 9.87 µM (≈ 25 µg/mL); MIC (Pasteurella multocida): ≥ 39.5 µM; MIC (Listeria innocua): ≥ 39.5 µM; MIC [6]: ≥ 39.5 µM
5 | – | > 56.5 µM | – | > 56.5 µM | – | – | – | – | – | – | – | – | – | CC[C@H](C)[C@H](NC(=O)[C@@H](NC(=O)CN)C(C)C)C(=O)N[C@@H](CC(=O)O)C(=O)N[C@@H](C)C(=O)N[C@@H](C)C(=O)N[C@@H](CCCCN)C(=O)N[C@@H](CCCCN)C(=O)N[C@H](C(=O)N[C@H](C(=O)N[C@@H](CC(N)=O)C(=O)N[C@H](C(=O)N[C@@H](CC(C)C)C(=O)N[C@@H](C)C(=O)N[C@@H](CC(N)=O)C(=O)N[C@@H](CC(C)C)C(=O)N[C@@H](Cc1ccccc1)C(N)=O)C(C)C)C(C)C)C(C)C [GVIDAAKKVVNVLANLF] | MIC (Bacillus cereus): ≥ 56.5 µM; MIC (Micrococcus luteus): ≥ 56.5 µM; MIC (Streptococcus uberis): 28.2 µM (≈ 50 µg/mL); MIC (Leuconostoc lactis): 6.78 µM (≈ 12 µg/mL); MIC (Pasteurella multocida): ≥ 56.5 µM; MIC (Listeria innocua): ≥ 56.5 µM; MIC [6]: ≥ 56.5 µM
6 | 1.42 µM (≈ 2 µg/mL) | – | – | – | 1.42 µM (≈ 2 µg/mL) | 1.42 µM (≈ 2 µg/mL) | 1.42 µM (≈ 2 µg/mL) | 1.42 µM (≈ 2 µg/mL) | 1.42 µM (≈ 2 µg/mL) | 1.42 µM (≈ 2 µg/mL) | 5.67 µM (≈ 7.99 µg/mL) | 5.67 µM (≈ 7.99 µg/mL) | 1.42 µM (≈ 2 µg/mL) | CC(C)C[C@H](NC(=O)[C@H](CC(C)C)NC(=O)[C@H](CCCCN)NC(=O)[C@H](CCCCN)NC(=O)[C@H](CC(C)C)NC(=O)[C@H](Cc1c[nH]c2ccccc12)NC(=O)[C@H](CCCCN)NC(=O)[C@H](CC(C)C)NC(=O)[C@H](CC(C)C)NC(=O)[C@@H](N)CCCCN)C(=O)N[C@@H](CCCCN)C(N)=O [KLLKWLKKLLK] | –
7 | 81.1 µM (≈ 79.9 µg/mL) | – | – | – | > 81.1 µM | 40.6 µM (≈ 40 µg/mL) | ≥ 81.1 µM | ≥ 81.1 µM | ≥ 81.1 µM | 20.3 µM (≈ 20 µg/mL) | 81.1 µM (≈ 79.9 µg/mL) | ≥ 81.1 µM | 20.3 µM (≈ 20 µg/mL) | CC(C)C[C@H](NC(=O)[C@H](Cc1c[nH]c2ccccc12)NC(=O)[C@H](CCCCN)NC(=O)[C@H](CC(C)C)NC(=O)[C@H](CC(C)C)NC(=O)[C@H](Cc1c[nH]c2ccccc12)NC(=O)[C@@H](N)CCCCN)C(N)=O [KWLLKWL] | –
8 | 2 µM (≈ 3.37 µg/mL) | 2 µM (≈ 3.37 µg/mL) | 4 µM (≈ 6.74 µg/mL) | 2 µM (≈ 3.37 µg/mL) | – | 4 µM (≈ 6.74 µg/mL) | – | – | – | – | – | – | – | CC(C)C[C@H](NC(=O)[C@H](CCCCN)NC(=O)[C@H](Cc1c[nH]c2ccccc12)NC(=O)[C@H](CCCCN)NC(=O)[C@H](CC(C)C)NC(=O)[C@H](CCCCN)NC(=O)[C@H](Cc1c[nH]c2ccccc12)NC(=O)[C@H](CCCCN)NC(=O)[C@H](CC(C)C)NC(=O)[C@H](CCCCN)NC(=O)[C@@H](N)Cc1c[nH]c2ccccc12)C(=O)N[C@@H](CCCCN)C(N)=O [WKLKWKLKWKLK] | MIC (Acinetobacter baumannii): 2.83 µM (≈ 4.76 µg/mL); MIC [16]: 2 µM (≈ 3.37 µg/mL); MIC (Escherichia coli UB1005): 4 µM (≈ 6.74 µg/mL); MIC [17]: 2 µM (≈ 3.37 µg/mL); MIC [18]: 2 µM (≈ 3.37 µg/mL)
9 | > 105 µM | – | – | – | > 105 µM | > 105 µM | ≥ 105 µM | ≥ 105 µM | ≥ 105 µM | ≥ 105 µM | > 105 µM | ≥ 105 µM | ≥ 105 µM | CC(C)C[C@H](NC(=O)[C@@H](N)Cc1c[nH]c2ccccc12)C(=O)N[C@@H](CCCCN)C(=O)N[C@@H](CCCCN)C(=O)N[C@@H](Cc1c[nH]c2ccccc12)C(N)=O [WLKKW] | –
10 | > 107 µM | – | – | – | > 107 µM | > 107 µM | ≥ 107 µM | ≥ 107 µM | ≥ 107 µM | ≥ 107 µM | > 107 µM | ≥ 107 µM | ≥ 107 µM | CC(C)C[C@H](NC(=O)[C@H](CC(C)C)NC(=O)[C@@H](N)Cc1c[nH]c2ccccc12)C(=O)N[C@@H](CCCCN)C(=O)N[C@@H](Cc1c[nH]c2ccccc12)C(N)=O [WLLKW] | –
11 | 4 µM (≈ 7.14 µg/mL) | 2 µM (≈ 3.57 µg/mL) | 8 µM (≈ 14.3 µg/mL) | 2.83 µM (≈ 5.05 µg/mL) | – | – | – | – | – | – | – | – | – | CC(C)C[C@H](NC(=O)[C@H](CCCN=C(N)N)NC(=O)[C@H](Cc1c[nH]c2ccccc12)NC(=O)[C@H](CCCN=C(N)N)NC(=O)[C@@H](NC(=O)[C@H](CCCCN)NC(=O)[C@H](Cc1c[nH]c2ccccc12)NC(=O)[C@H](CCCN=C(N)N)NC(=O)[C@H](CC(C)C)NC(=O)[C@H](CCCN=C(N)N)NC(=O)[C@@H](N)Cc1c[nH]c2ccccc12)[C@@H](C)O)C(=O)N[C@@H](CCCCN)C(N)=O [WRLRWKTRWRLK] | MIC (Acinetobacter baumannii): 4 µM (≈ 7.14 µg/mL); MIC [16]: 2 µM (≈ 3.57 µg/mL); MIC (Escherichia coli UB1005): 2 µM (≈ 3.57 µg/mL); MIC [18]: 2 µM (≈ 3.57 µg/mL)
12 | 2 µM (≈ 3.7 µg/mL) | 1 µM (≈ 1.85 µg/mL) | 4 µM (≈ 7.41 µg/mL) | 2 µM (≈ 3.7 µg/mL) | – | 4 µM (≈ 7.41 µg/mL) | – | – | – | – | – | – | – | CC(C)C[C@H](NC(=O)[C@H](CCCN=C(N)N)NC(=O)[C@H](Cc1c[nH]c2ccccc12)NC(=O)[C@H](CCCN=C(N)N)NC(=O)[C@H](CC(C)C)NC(=O)[C@H](CCCN=C(N)N)NC(=O)[C@H](Cc1c[nH]c2ccccc12)NC(=O)[C@H](CCCN=C(N)N)NC(=O)[C@H](CC(C)C)NC(=O)[C@H](CCCN=C(N)N)NC(=O)[C@@H](N)Cc1c[nH]c2ccccc12)C(=O)N[C@@H](CCCN=C(N)N)C(N)=O [WRLRWRLRWRLR] | MIC (Acinetobacter baumannii): 2.83 µM (≈ 5.24 µg/mL); MIC [16]: 2 µM (≈ 3.7 µg/mL); MIC (Escherichia coli UB1005): 2 µM (≈ 3.7 µg/mL); MIC [17]: 1 µM (≈ 1.85 µg/mL); MIC [18]: 2 µM (≈ 3.7 µg/mL)
